Laboratory results published in ChEMBL document CHEMBL4507276 (2021).

Experiments:
[1] = molecular target: T1, Serine/threonine-protein kinase Sgk2 (Homo sapiens) (UniProt Q9HBY8); experiment: SGK2 Invitrogen selectivity data (BI); settings: Compound concentration 3.0 uM
T1 sequence (whole entry): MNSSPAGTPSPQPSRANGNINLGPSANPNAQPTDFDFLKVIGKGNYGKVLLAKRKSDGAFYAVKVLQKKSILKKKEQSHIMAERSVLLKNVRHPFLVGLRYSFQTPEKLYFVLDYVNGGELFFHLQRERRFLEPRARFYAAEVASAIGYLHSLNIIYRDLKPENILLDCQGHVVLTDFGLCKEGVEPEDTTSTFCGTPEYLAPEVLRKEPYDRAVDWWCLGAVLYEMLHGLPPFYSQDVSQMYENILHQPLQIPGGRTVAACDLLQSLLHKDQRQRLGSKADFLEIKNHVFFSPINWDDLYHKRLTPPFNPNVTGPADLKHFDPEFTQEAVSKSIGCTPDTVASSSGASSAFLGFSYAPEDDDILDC

[2] = molecular target: Tyrosine-protein kinase BTK (Homo sapiens) (UniProt Q06187); experiment: BTK Invitrogen selectivity data (BI); settings: Compound concentration 3.0 uM
Sequence of Tyrosine-protein kinase BTK (Homo sapiens) (Q06187 whole entry): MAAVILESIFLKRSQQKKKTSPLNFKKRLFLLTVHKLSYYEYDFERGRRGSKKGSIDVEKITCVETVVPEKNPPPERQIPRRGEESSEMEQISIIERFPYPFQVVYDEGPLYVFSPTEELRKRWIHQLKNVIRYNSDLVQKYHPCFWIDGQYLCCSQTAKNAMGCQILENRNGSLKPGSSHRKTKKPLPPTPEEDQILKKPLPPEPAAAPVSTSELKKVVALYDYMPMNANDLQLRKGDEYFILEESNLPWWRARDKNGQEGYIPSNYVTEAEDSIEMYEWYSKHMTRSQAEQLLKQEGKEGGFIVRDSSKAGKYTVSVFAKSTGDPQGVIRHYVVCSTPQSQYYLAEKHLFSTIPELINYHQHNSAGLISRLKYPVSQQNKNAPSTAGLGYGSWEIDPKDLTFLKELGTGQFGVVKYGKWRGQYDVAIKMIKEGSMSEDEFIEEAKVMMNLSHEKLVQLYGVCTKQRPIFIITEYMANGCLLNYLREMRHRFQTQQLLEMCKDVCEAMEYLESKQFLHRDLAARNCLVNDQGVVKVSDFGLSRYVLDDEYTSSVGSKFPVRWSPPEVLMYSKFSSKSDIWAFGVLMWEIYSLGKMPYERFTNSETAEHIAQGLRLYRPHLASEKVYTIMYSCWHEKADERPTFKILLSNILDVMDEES

[3] = molecular target: Adenosine receptor A2a (Homo sapiens) (UniProt P29274); experiment: A2A/HU Eurofins-Panlabs selectivity data (BI); settings: Compound concentration 10.0 uM
Sequence of Adenosine receptor A2a (Homo sapiens) (P29274 whole entry): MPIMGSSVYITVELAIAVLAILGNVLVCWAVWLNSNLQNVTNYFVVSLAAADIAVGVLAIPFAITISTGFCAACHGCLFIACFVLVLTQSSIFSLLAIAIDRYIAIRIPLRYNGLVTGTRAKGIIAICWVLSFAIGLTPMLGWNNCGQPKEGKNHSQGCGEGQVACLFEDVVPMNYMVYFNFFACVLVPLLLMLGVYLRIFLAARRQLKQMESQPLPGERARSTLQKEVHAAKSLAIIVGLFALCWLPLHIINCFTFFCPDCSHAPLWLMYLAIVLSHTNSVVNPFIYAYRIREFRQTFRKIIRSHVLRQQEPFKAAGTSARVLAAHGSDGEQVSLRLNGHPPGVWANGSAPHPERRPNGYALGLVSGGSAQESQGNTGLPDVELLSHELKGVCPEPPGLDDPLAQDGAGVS

[4] = molecular target: Leukotriene B4 receptor 1 (Homo sapiens) (UniProt Q15722); experiment: BLT1/H Cerep selectivity data (BI); settings: Compound concentration 20.0 uM
Sequence of Leukotriene B4 receptor 1 (Homo sapiens) (Q15722 whole entry): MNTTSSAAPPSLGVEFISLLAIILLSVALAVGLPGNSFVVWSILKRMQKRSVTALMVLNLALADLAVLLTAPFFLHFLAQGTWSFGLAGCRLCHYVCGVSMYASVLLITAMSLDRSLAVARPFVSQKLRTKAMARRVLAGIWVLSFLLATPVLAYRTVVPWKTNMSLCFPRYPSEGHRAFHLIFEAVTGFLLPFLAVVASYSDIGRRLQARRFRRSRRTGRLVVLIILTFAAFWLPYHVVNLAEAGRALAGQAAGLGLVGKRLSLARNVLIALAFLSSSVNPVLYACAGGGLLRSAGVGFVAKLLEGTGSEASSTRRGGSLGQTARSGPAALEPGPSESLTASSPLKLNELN

[5] = molecular target: Beta-secretase 1 (Homo sapiens) (UniProt P56817); experiment: BACE-1 Cerep selectivity data (BI); settings: Compound concentration 20.0 uM
Sequence of Beta-secretase 1 (Homo sapiens) (P56817 whole entry): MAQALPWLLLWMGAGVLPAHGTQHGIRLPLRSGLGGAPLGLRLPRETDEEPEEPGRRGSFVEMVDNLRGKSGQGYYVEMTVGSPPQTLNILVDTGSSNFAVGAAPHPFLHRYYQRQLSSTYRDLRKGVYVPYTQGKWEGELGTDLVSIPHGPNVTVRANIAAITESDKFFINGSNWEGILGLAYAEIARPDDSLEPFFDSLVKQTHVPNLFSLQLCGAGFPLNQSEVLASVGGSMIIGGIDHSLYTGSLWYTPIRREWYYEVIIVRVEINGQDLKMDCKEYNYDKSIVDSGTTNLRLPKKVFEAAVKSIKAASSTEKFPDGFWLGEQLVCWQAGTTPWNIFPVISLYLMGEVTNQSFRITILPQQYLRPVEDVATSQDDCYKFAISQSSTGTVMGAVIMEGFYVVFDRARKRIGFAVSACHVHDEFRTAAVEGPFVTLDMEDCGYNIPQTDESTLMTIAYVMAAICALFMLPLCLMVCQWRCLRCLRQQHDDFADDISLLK

[6] = molecular target: Dual specificity protein kinase CLK4 (Homo sapiens) (UniProt Q9HAZ1); experiment: CLK4 Invitrogen selectivity data (BI); settings: Compound concentration 3.0 uM
Sequence of Dual specificity protein kinase CLK4 (Homo sapiens) (Q9HAZ1 whole entry, looked up): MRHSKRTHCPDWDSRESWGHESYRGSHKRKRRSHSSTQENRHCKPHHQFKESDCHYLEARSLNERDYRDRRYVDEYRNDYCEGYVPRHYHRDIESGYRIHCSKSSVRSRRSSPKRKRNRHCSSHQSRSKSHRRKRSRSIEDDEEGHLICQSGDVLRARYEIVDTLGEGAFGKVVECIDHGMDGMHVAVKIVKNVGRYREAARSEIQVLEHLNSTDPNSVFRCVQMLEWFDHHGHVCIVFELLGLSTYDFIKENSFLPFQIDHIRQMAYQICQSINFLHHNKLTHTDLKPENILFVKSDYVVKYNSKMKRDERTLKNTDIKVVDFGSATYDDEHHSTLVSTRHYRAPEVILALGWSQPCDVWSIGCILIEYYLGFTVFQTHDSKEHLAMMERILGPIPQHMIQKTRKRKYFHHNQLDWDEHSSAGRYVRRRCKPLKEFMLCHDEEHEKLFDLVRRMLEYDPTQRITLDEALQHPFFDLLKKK

[7] = molecular target: Endothelin-1 receptor (Homo sapiens) (UniProt P25101); experiment: ETA/H Cerep selectivity data (BI); settings: Compound concentration 20.0 uM
Sequence of Endothelin-1 receptor (Homo sapiens) (P25101 whole entry): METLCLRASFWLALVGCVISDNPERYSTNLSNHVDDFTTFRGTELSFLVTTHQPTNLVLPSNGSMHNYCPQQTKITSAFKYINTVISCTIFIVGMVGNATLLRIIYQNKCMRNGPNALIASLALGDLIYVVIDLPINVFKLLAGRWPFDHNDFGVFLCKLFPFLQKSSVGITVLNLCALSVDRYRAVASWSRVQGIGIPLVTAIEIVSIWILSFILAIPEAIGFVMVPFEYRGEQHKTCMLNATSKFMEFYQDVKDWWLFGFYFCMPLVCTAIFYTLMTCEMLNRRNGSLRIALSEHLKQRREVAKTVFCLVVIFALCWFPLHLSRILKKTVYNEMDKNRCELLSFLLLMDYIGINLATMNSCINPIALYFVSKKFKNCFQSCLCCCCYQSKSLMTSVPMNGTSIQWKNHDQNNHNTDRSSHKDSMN

[8] = molecular target: T2, Serine/threonine-protein kinase NLK (Homo sapiens) (UniProt Q9UBE8); experiment: NLK Invitrogen selectivity data (BI); settings: Compound concentration 3.0 uM
T2 sequence (whole entry): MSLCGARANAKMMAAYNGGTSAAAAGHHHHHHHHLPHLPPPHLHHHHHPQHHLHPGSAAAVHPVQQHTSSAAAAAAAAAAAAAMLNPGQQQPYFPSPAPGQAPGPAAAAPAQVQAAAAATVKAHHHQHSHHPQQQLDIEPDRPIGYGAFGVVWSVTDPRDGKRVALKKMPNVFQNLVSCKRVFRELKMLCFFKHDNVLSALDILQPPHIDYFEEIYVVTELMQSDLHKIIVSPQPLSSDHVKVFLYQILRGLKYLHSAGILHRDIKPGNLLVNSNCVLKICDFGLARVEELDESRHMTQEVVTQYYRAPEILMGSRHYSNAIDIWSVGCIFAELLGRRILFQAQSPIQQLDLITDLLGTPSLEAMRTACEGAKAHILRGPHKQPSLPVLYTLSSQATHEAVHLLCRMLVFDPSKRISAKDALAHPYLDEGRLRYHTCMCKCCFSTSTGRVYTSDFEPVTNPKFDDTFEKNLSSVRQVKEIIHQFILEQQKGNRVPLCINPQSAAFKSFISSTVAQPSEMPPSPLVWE

[9] = molecular target: Tyrosine-protein kinase Lyn (Homo sapiens) (UniProt P07948); experiment: LYN A Invitrogen selectivity data (BI); settings: Compound concentration 3.0 uM
Sequence of Tyrosine-protein kinase Lyn (Homo sapiens) (P07948 2-512 limits assumed): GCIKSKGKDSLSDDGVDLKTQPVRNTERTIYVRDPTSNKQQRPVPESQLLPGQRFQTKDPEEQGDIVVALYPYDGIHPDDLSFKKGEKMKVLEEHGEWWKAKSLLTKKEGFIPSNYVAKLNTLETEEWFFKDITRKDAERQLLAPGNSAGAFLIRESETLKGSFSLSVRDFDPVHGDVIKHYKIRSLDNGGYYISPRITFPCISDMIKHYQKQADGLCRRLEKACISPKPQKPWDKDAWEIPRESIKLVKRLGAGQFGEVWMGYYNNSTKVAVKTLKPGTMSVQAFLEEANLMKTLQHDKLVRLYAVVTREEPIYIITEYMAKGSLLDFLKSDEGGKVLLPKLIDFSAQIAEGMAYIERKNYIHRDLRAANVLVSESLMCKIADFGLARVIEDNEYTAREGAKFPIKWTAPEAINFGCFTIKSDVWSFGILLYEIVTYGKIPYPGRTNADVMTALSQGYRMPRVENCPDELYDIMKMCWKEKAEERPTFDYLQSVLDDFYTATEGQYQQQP

[10] = system: Serine/threonine-protein kinase B-raf (Homo sapiens), P15056 [V600E]; experiment: BRAF V599E Invitrogen selectivity data (BI); settings: Compound concentration 3.0 uM
Sequence of Serine/threonine-protein kinase B-raf (Homo sapiens), P15056 [V600E] (P15056 whole entry V600E): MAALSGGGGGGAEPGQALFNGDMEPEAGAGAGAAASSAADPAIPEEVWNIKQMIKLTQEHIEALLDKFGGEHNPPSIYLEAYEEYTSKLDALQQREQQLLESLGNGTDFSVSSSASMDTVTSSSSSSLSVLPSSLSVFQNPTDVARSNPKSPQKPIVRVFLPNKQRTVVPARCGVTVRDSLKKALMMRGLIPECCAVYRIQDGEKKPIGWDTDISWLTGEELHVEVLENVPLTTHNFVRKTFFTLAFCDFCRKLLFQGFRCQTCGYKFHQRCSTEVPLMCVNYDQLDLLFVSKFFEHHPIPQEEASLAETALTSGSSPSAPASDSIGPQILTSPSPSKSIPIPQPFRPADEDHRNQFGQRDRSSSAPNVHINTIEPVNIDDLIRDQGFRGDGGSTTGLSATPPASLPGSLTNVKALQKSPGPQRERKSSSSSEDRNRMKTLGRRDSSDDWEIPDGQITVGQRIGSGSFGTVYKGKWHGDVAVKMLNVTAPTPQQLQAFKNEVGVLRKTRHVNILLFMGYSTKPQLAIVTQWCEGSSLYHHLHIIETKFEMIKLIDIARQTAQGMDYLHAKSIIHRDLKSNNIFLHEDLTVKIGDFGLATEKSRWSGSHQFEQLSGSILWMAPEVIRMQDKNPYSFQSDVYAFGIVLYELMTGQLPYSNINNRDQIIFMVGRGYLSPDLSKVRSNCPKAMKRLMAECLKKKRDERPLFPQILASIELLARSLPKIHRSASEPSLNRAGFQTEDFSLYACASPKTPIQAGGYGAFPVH

[11] = molecular target: T3, Tyrosine-protein kinase JAK3 (Homo sapiens) (UniProt P52333); experiment: JAK3 Invitrogen selectivity data (BI); settings: Compound concentration 3.0 uM
T3 sequence (whole entry): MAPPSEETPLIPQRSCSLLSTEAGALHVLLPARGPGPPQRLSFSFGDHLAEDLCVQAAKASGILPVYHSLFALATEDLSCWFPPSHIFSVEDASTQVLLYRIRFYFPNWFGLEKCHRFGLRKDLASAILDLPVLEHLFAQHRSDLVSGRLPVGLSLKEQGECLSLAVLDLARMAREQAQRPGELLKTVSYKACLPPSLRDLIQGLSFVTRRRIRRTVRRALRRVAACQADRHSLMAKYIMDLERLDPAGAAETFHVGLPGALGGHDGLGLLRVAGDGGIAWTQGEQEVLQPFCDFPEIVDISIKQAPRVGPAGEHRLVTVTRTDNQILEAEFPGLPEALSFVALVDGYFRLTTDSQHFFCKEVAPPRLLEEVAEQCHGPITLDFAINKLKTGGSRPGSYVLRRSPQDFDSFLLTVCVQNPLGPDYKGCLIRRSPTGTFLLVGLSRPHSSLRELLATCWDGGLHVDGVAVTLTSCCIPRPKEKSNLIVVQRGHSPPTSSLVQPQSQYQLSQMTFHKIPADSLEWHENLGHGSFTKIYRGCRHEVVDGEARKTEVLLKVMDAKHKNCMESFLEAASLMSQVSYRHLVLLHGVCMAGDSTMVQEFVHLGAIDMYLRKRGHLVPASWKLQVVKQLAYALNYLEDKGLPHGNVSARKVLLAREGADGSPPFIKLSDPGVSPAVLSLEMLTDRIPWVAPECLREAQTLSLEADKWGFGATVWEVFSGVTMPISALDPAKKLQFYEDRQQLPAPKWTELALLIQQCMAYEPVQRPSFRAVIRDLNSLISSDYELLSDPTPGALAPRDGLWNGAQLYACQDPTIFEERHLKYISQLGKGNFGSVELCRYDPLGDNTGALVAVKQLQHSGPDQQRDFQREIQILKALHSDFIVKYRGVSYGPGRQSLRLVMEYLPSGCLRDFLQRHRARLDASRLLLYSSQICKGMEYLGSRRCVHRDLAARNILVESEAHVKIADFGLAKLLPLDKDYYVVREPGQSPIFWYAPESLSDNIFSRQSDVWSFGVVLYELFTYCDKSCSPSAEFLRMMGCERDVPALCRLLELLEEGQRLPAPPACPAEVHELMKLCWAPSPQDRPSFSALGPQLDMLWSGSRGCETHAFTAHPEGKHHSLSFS

[12] = molecular target: Serine/threonine-protein kinase 26 (Homo sapiens) (UniProt Q9P289); experiment: MST4 Invitrogen selectivity data (BI); settings: Compound concentration 3.0 uM
Sequence of Serine/threonine-protein kinase 26 (Homo sapiens) (Q9P289 2-416 limits assumed): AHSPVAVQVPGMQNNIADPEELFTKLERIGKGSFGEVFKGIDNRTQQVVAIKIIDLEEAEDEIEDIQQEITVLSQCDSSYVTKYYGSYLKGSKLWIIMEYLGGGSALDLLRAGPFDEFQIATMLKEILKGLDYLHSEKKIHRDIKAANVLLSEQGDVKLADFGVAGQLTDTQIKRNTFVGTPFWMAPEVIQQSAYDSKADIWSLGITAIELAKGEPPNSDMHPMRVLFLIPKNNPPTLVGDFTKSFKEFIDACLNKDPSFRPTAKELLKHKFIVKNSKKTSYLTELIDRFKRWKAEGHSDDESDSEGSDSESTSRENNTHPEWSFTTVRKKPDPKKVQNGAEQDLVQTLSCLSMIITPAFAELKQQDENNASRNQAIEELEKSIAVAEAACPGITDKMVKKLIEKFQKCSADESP

[13] = molecular target: Serine/threonine-protein kinase pim-2 (Homo sapiens) (UniProt Q9P1W9); experiment: PIM2 Invitrogen selectivity data (BI); settings: Compound concentration 3.0 uM
Sequence of Serine/threonine-protein kinase pim-2 (Homo sapiens) (Q9P1W9 whole entry, looked up): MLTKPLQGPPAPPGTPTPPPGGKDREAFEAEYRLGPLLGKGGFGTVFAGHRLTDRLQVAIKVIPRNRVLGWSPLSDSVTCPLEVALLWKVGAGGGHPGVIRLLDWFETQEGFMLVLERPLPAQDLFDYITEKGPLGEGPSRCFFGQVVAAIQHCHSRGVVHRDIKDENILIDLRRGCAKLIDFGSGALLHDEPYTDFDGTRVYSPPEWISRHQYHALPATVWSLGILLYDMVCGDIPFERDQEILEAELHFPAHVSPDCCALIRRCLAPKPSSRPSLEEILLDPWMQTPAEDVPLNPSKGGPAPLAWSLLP

Measured: residual activity

CN(C)C(=O)Cn1cc(-c2nc([C@@](C)(c3ccc(-c4cnc(N)nc4)cc3)C3CC3)no2)cn1 [BI 665915]
inactive: [1] 97% | [2] 89.5% | [3] 105% | [4] 100% | [5] 102% | [6] 95% | [7] 102% | [8] 93% | [9] 93% | [10] 97% | [11] 96.5% | [12] 99% | [13] 101%
